The source of these data is US7531482B2, “Thieno-pyrimidine compounds having fungicidal activity” (Dow AgroSciences LLC, priority 2005, dated 2009).

What all share (assay type): in vivo
In one experiment the test system is Colletotricum lagenarium. Put plainly: Cucumber Anthracnose (COLLLA) whole-plant disease control test. Conditions: 200 ppm applied to foliage of cucumber, inoculated one day after treatment; for pest or weed control at 200 ppm: Cucumis sativus, foliar, read-out: COLLLA disease control.
The next experiment relates to Erysiphe cichoracaerum. Put plainly: Cucumber Powdery Mildew (ERYSCI) whole-plant disease control test. The note with it: 200 ppm applied to foliage of cucumber, inoculated one day after treatment; for pest or weed control at 200 ppm: Erysiphe, foliar, read-out: ERYSCI disease control.
For another experiment, the system named is Leptosphaeria nodorum. Put plainly: Glume Blotch of Wheat (LEPTNO) whole-plant disease control test. The note with it: 200 ppm applied to foliage of wheat, inoculated one day after treatment; for pest or weed control at 200 ppm: Parastagonospora nodorum, foliar, read-out: LEPTNO disease control.
The test system of the next experiment is Phytophthora infestans. Put plainly: whole plant or invertebrate. The note with it: inoculated one day after treatment; for pest or weed control at 200 ppm: Phytophthora infestans, in Solanum lycopersicum, foliar, read-out: PHYTIN disease control, 200 ppm applied to foliage of tomato.
The test system of experiment [1] is Puccinia recondita tritici. Put plainly: Leaf Rust of Wheat (PUCCRT) whole-plant disease control test. The note with it: 200 ppm applied to foliage of wheat, inoculated one day after treatment; for pest or weed control at 200 ppm: Puccinia recondita, foliar, read-out: PUCCRT disease control.
Experiment [2] deals with Magnaporthe grisea=Pyricularia oryzae. Put plainly: whole plant or invertebrate. The note with it: inoculated one day after treatment; for pest or weed control at 200 ppm: Pyricularia oryzae, foliar, read-out: PYRIOR disease control, 200 ppm applied to foliage of rice.
Experiment [3] concerns Mycosphaerella graminicola=Septoria tritici. Put plainly: Speckled Leaf Blotch of Wheat (SEPTTR) whole-plant disease control test. Conditions: 75 ppm applied to foliage of wheat; for pest or weed control at 75 ppm: Mycosphaerella, foliar, read-out: SEPTTR disease control.

Regarding `N#Cc1ccnc(Oc2ccc(CCNc3ncnc4sccc34)cc2)c1` [Compound 53], the pest or weed control at 200 ppm in the experiment on Colletotricum lagenarium fell in the range of 80 to 100%; in the experiment with Erysiphe cichoracaerum, 50 to 79%; in the experiment with Leptosphaeria nodorum, 50 to 79%; with Phytophthora infestans it was 80 to 100%; in experiment [1] it was 80 to 100%; in experiment [2], 80 to 100%. Also, the pest or weed control at 75 ppm in experiment [3] lay in the range of 50 to 79%.
Consider `Clc1csc2ncnc(NCCc3ccc(Oc4ncnc5sccc45)cc3)c12` [Compound 54], for which the pest or weed control at 200 ppm in the experiment on Colletotricum lagenarium lay within 80 to 100%; in the experiment with Erysiphe cichoracaerum, 50 to 79%; with Leptosphaeria nodorum, 50 to 79%; in the experiment with Phytophthora infestans, 80 to 100%; in experiment [1] it was 80 to 100%; in experiment [2], 80 to 100%. In experiment [3], the pest or weed control at 75 ppm is 0 to 49%.
For `N#Cc1ccnc(Oc2ccc(CCNc3ncnc4scc(F)c34)cc2)c1` [Compound 55], the pest or weed control at 200 ppm lay in the range of 80 to 100% in the experiment with Colletotricum lagenarium; 50 to 79% in the experiment with Erysiphe cichoracaerum; 0 to 49% with Leptosphaeria nodorum; 50 to 79% in the experiment with Phytophthora infestans; 80 to 100% in experiment [1]; 0 to 49% in experiment [2]. For the same compound, the pest or weed control at 75 ppm in experiment [3] lay in the range of 50 to 79%.
For the compound `Brc1csc2ncnc(NCCc3ccc(Oc4ncnc5scc(Br)c45)cc3)c12` [Compound 57], the pest or weed control at 200 ppm lay within 50 to 79% in the experiment with Colletotricum lagenarium; 0 to 49% in the experiment on Erysiphe cichoracaerum; 0 to 49% in the experiment on Leptosphaeria nodorum; 0 to 49% in the experiment on Phytophthora infestans; 80 to 100% in experiment [1]; 80 to 100% in experiment [2]. Moreover, in experiment [3], the pest or weed control at 75 ppm is 0 to 49%.
For the compound `N#Cc1nc(Cl)ccc1Oc1ccc(CCNc2ncnc3scc(Cl)c23)cc1` [Compound 58], the pest or weed control at 200 ppm in the experiment on Colletotricum lagenarium was 0 to 49%; in the experiment with Erysiphe cichoracaerum, 0 to 49%; in the experiment with Leptosphaeria nodorum, 50 to 79%; in the experiment with Phytophthora infestans it was 0 to 49%; in experiment [1], 80 to 100%; in experiment [2], 80 to 100%. Further, the pest or weed control at 75 ppm in experiment [3] fell in the range of 50 to 79%.
Regarding `N#Cc1nc(Oc2ccc(CCNc3ncnc4scc(Cl)c34)cc2)ccc1Cl` [Compound 59], the pest or weed control at 200 ppm in the experiment on Colletotricum lagenarium fell in the range of 80 to 100%; with Erysiphe cichoracaerum, 50 to 79%; with Leptosphaeria nodorum, 0 to 49%; with Phytophthora infestans, 0 to 49%; in experiment [1], 80 to 100%; in experiment [2], 80 to 100%. In experiment [3], the pest or weed control at 75 ppm was in the range of 0 to 49%.
As to `Fc1cnc(C(F)(F)F)c(F)c1Oc1ccc(CCNc2ncnc3scc(Cl)c23)cc1` [Compound 61], the pest or weed control at 200 ppm with Colletotricum lagenarium is 80 to 100%; in the experiment with Erysiphe cichoracaerum it was 80 to 100%; with Leptosphaeria nodorum, 50 to 79%; in the experiment with Phytophthora infestans, 0 to 49%; in experiment [1] it was 80 to 100%; in experiment [2], 80 to 100%. In experiment [3], the pest or weed control at 75 ppm is 80 to 100%.
`FC(F)(F)c1cc(Cl)nc(Oc2ccc(CCNc3ncnc4scc(Cl)c34)cc2)c1` [Compound 62]: the pest or weed control at 200 ppm in the experiment with Colletotricum lagenarium is 80 to 100%; in the experiment on Erysiphe cichoracaerum, 50 to 79%; in the experiment on Leptosphaeria nodorum, 0 to 49%; with Phytophthora infestans, 0 to 49%; in experiment [1], 80 to 100%; in experiment [2] it was 80 to 100%. The pest or weed control at 75 ppm in experiment [3] fell in the range of 50 to 79%.
As to `COc1cc(C(F)(F)F)cc(Oc2ccc(CCNc3ncnc4scc(Cl)c34)cc2)n1` [Compound 63], the pest or weed control at 200 ppm in the experiment with Colletotricum lagenarium fell in the range of 50 to 79%; in the experiment with Erysiphe cichoracaerum, 80 to 100%; with Leptosphaeria nodorum it was 0 to 49%; with Phytophthora infestans it was 50 to 79%; in experiment [1] it was 80 to 100%; in experiment [2], 80 to 100%. Also, in experiment [3], the pest or weed control at 75 ppm was 50 to 79%.
As to `FC(F)(F)c1cnc(Oc2ccc(CCNc3ncnc4scc(Cl)c34)cc2)c(Cl)c1` [Compound 64], the pest or weed control at 200 ppm in the experiment with Colletotricum lagenarium is 50 to 79%; with Erysiphe cichoracaerum, 80 to 100%; with Leptosphaeria nodorum it was 0 to 49%; in the experiment with Phytophthora infestans, 0 to 49%; in experiment [1], 80 to 100%; in experiment [2], 80 to 100%. Besides, in experiment [3], the pest or weed control at 75 ppm lay within 80 to 100%.
As to `FC(F)(F)c1ccc(Oc2ccc(CCNc3ncnc4scc(Cl)c34)cc2)cn1` [Compound 65], the pest or weed control at 200 ppm fell in the range of 80 to 100% in the experiment on Colletotricum lagenarium; 50 to 79% with Erysiphe cichoracaerum; 50 to 79% with Leptosphaeria nodorum; 80 to 100% in the experiment with Phytophthora infestans; 80 to 100% in experiment [1]; 80 to 100% in experiment [2]. Also, the pest or weed control at 75 ppm in experiment [3] was 80 to 100%.
In the case of `Cc1noc2ncnc(Oc3ccc(CCNc4ncnc5scc(Cl)c45)cc3)c12` [Compound 66], the pest or weed control at 200 ppm in the experiment on Colletotricum lagenarium was 0 to 49%; in the experiment with Erysiphe cichoracaerum, 0 to 49%; in the experiment on Leptosphaeria nodorum it was 0 to 49%; with Phytophthora infestans, 0 to 49%; in experiment [1] it was 80 to 100%; in experiment [2] it was 50 to 79%. For the same compound, the pest or weed control at 75 ppm in experiment [3] fell in the range of 50 to 79%.
For `FC(F)(F)c1ccc(Oc2cccc(CCNc3ncnc4scc(Cl)c34)c2)nc1` [Compound 67, (5-Chlorothieno[2,3-d]pyrimidin-4-yl)-{2-[3-(5-trifluoromethylpyridin-2-yloxy)phenyl]ethyl}amine], the pest or weed control at 200 ppm in the experiment on Colletotricum lagenarium lay in the range of 0 to 49%; in the experiment on Erysiphe cichoracaerum, 50 to 79%; with Leptosphaeria nodorum it was 50 to 79%; in the experiment with Phytophthora infestans, 50 to 79%; in experiment [1], 80 to 100%; in experiment [2], 80 to 100%. For the same compound, in experiment [3], the pest or weed control at 75 ppm was 80 to 100%.
Turning to `Clc1csc2ncnc(NCCc3ccc(Oc4ncnc5scc(Cl)c45)cc3)c12` [Compound 68], in the experiment with Colletotricum lagenarium, the COLLLA disease control entry is reported as “* (* = 0–49 percent control)”. For the same compound, the ERYSCI disease control result with Erysiphe cichoracaerum is “* (* = 0–49 percent control)”. Further, in the experiment with Leptosphaeria nodorum, the LEPTNO disease control result is listed as “* (* = 0–49 percent control)”. Also, the PHYTIN disease control entry with Phytophthora infestans (200 ppm applied to foliage of tomato) is recorded as “** (** = 50–79 percent control)”. Further, the PUCCRT disease control entry in experiment [1] is “*** (*** = 80–100 percent control)”. Moreover, in experiment [2] (200 ppm applied to foliage of rice), the PYRIOR disease control entry is reported as “*** (*** = 80–100 percent control)”. Besides, the SEPTTR disease control entry in experiment [3] is “* (* = 0–49 percent control)”.
For the compound `FC(F)(F)c1ccnc(Oc2cccc(CCNc3ncnc4scc(Cl)c34)c2)c1` [Compound 69], the pest or weed control at 200 ppm in the experiment on Colletotricum lagenarium was in the range of 0 to 49%; with Erysiphe cichoracaerum it was 50 to 79%; in the experiment on Leptosphaeria nodorum, 0 to 49%; in the experiment on Phytophthora infestans, 0 to 49%; in experiment [1] it was 80 to 100%; in experiment [2], 80 to 100%. Also, the pest or weed control at 75 ppm in experiment [3] lay in the range of 50 to 79%.
`Cc1cc(OC(F)F)cnc1Oc1ccc(CCNc2ncnc3scc(Cl)c23)cc1` [Compound 70]: the pest or weed control at 200 ppm with Colletotricum lagenarium was 80 to 100%; in the experiment with Erysiphe cichoracaerum, 0 to 49%; in the experiment with Leptosphaeria nodorum, 80 to 100%; in the experiment with Phytophthora infestans, 50 to 79%; in experiment [1], 80 to 100%; in experiment [2], 80 to 100%. Also, the pest or weed control at 75 ppm in experiment [3] fell in the range of 80 to 100%.
Take `N#Cc1c(Cl)cncc1Oc1ccc(CCNc2ncnc3scc(Cl)c23)cc1` [Compound 71]: the pest or weed control at 200 ppm fell in the range of 80 to 100% with Colletotricum lagenarium; 50 to 79% in the experiment on Erysiphe cichoracaerum; 80 to 100% with Leptosphaeria nodorum; 0 to 49% in the experiment on Phytophthora infestans; 80 to 100% in experiment [1]; 80 to 100% in experiment [2]. In experiment [3], the pest or weed control at 75 ppm is 80 to 100%.
Consider `N#Cc1ccncc1Oc1ccc(CCNc2ncnc3scc(Cl)c23)cc1` [Compound 74], for which the pest or weed control at 200 ppm in the experiment on Colletotricum lagenarium was 80 to 100%; in the experiment on Erysiphe cichoracaerum it was 0 to 49%; in the experiment with Leptosphaeria nodorum, 80 to 100%; with Phytophthora infestans it was 50 to 79%; in experiment [1] it was 80 to 100%; in experiment [2], 80 to 100%. For the same compound, the pest or weed control at 75 ppm in experiment [3] fell in the range of 50 to 79%.
Take `FC(F)(F)c1cc(Oc2ccc(CCNc3ncnc4scc(Cl)c34)cc2)cc(C(F)(F)F)n1` [Compound 75]: the pest or weed control at 200 ppm was 80 to 100% with Colletotricum lagenarium; 80 to 100% with Erysiphe cichoracaerum; 80 to 100% with Leptosphaeria nodorum; 0 to 49% in the experiment with Phytophthora infestans; 80 to 100% in experiment [1]; 80 to 100% in experiment [2]. The pest or weed control at 75 ppm in experiment [3] lay within 50 to 79%.
As for `FC(F)(F)c1cc(Oc2ccc(CCNc3ncnc4scc(Cl)c34)cc2)nc(C(F)(F)F)c1` [Compound 76], the pest or weed control at 200 ppm was in the range of 50 to 79% in the experiment on Colletotricum lagenarium; 0 to 49% in the experiment with Erysiphe cichoracaerum; 50 to 79% in the experiment with Leptosphaeria nodorum; 0 to 49% in the experiment with Phytophthora infestans; 80 to 100% in experiment [1]; 80 to 100% in experiment [2]. Besides, in experiment [3], the pest or weed control at 75 ppm was in the range of 0 to 49%.
